Experiment: Binding affinity by its ability to displace [3H]DPDPE from delta receptor in homogenates of guinea pig brain

Row | SMILES | Ki [nM]
1 | COc1cccc2c1[C@]13CCN(C)[C@H](C2)[C@]1(OC)CCC(=O)C3 [3,10-dimethoxy-17-methyl-(10S)-17-azatetracyclo[7.5.3.01,10.02,7]heptadeca-2(7),3,5-trien-13-one] | 46
2 | COc1cccc2c1[C@]13CCN(CC4CC4)[C@H](C2)[C@]1(OC)CCC(=O)C3 [Naltrindole analogue] | 105
3 | COc1cccc2c1[C@]13CCN(CCc4ccccc4)C(C2)[C@]1(OC)CCC(=O)C3 [3,10-dimethoxy-17-phenethyl-17-azatetracyclo[7.5.3.01,10.02,7]heptadeca-2(7),3,5-trien-13-one; with HBr] | 49

From BindingDB's records for doi:10.1016/0960-894X(95)00325-N (1995)
